Measurements: patent US12637499B2, “Adrenomedullin analog, method for producing the same, and pharmaceutical use thereof” (priority 2020, dated 2026)

How the values were obtained:
[1] = in vitro; details: serum, pH 7.1
Protocol: (§1) After the lapse of a predetermined time, a 30-μl portion was taken out of the reaction solution, transferred into 170 μl of 0.1% aqueous solution of trifluoroacetic acid (TFA), and stored at −80° C. until analysis.
(§2) Quantitative analysis was performed for AM contained in the thus-obtained samples of a reaction mixture with serum or plasma by using specific fluoroimmunoassay (Tosoh Corporation) with two antibodies differing in their recognition sites. […] In the figure, the abscissa represents reaction time (min), and the ordinate represents concentration of AM (UM).
In the figure, the abscissa represents reaction time (min), and the ordinate represents concentration of AM or an AM analog (μM).
In the figure, the abscissa represents the type of AM or an AM analog, and the ordinate represents residual rates of AM or an AM analog (%).

[2] = in vitro; details: Experiment VIII; 10^−7 M, 37° C.; 1 hour after the beginning of reaction
[3] = in vitro; details: plasma, pH 7.1
Protocol: as §1, §2

[4] = in vivo; details: male, Wistar, rat, plasma, sc, 50 nmol/kg
Protocol: Eight-week-old male Wistar rats were purchased from Charles River Laboratories Japan, Inc. The rats were grown with normal feeds in the absence of specific pathogens under cycles of a 12-hour light period and a 12-hour dark period. […] To determine plasma AM concentrations, 50 nmol/kg of AM or an AM analog was subcutaneously administered. A peripheral blood sample was collected from the tail vein into a test tube (containing 21 μg of aprotinin and 0.3 mg of EDTA-2Na) at predetermined times (0, 15, 30, 60, and 120 minutes after administration). The test tube was centrifuged at 1,700×g to afford plasma.

CC[C@H](C)[C@H](NC(=O)[C@H](CCC(N)=O)NC(=O)[C@H](Cc1c[nH]cn1)NC(=O)[C@H](C)NC(=O)[C@H](CC(C)C)NC(=O)[C@H](CCCCN)NC(=O)[C@H](CCC(N)=O)NC(=O)[C@@H](NC(=O)[C@@H](NC(=O)[C@@H]1CSSC[C@H](NC(=O)CNC(=O)[C@H](Cc2ccccc2)NC(=O)[C@H](CO)NC(=O)[C@H](CCCNC(=N)N)NC(=O)[C@H](CC(C)C)NC(=O)CNC(=O)[C@H](CCC(N)=O)NC(=O)[C@H](Cc2ccccc2)NC(=O)[C@H](CC(N)=O)NC(=O)[C@H](CC(N)=O)NC(=O)[C@H](CCSC)NC(=O)[C@H](CO)NC(=O)[C@H](CCC(N)=O)NC(=O)[C@H](CCCNC(=N)N)NC(=O)[C@@H](N)Cc2ccc(O)cc2)C(=O)N[C@@H](CCCNC(=N)N)C(=O)N[C@@H](Cc2ccccc2)C(=O)NCC(=O)N[C@@H]([C@@H](C)O)C(=O)N1)[C@@H](C)O)C(C)C)C(=O)N[C@@H](Cc1ccc(O)cc1)C(=O)N[C@@H](CCC(N)=O)C(=O)N[C@@H](Cc1ccccc1)C(=O)N[C@H](C(=O)N[C@@H](CC(=O)O)C(=O)N[C@@H](CCCCN)C(=O)N[C@@H](CC(=O)O)C(=O)N[C@@H](CCCCN)C(=O)N[C@@H](CC(=O)O)C(=O)N[C@@H](CC(N)=O)C(=O)N[C@H](C(=O)N[C@@H](C)C(=O)N1CCC[C@H]1C(=O)N[C@@H](CCCNC(=N)N)C(=O)N[C@@H](CO)C(=O)N[C@@H](CCCCN)C(=O)N[C@H](C(=O)N[C@@H](CO)C(=O)N1CCC[C@H]1C(=O)N[C@@H](CCC(N)=O)C(=O)NCC(=O)N[C@@H](Cc1ccc(O)cc1)C(N)=O)[C@@H](C)CC)C(C)C)[C@@H](C)O [hAM(1-52), YRQSMNNFQGLRSFGCRFGTCTVQKLAHQIYQFTDKDKDNVAPRSKISPQGY-CONH2, reference compound]
remaining at 4 h [1]: 0.2% | presence in reaction mixture with human serum [2]: substantially disappeared | remaining at 4 h [3]: 85% | half-life [4]: 1.23 h
